Values quoted from earlier work as cited in patent US11534424B2, “Compounds and methods for treatment of primary biliary cholangitis” (Arena Pharmaceuticals, Inc., priority 2017, dated 2022).

Key:
[1] = system: experimental autoimmune encephalomyelitis (EAE); conditions: murine EAE, relative to vehicle
[2] = system: collagen induced arthritis (CIA); conditions: CIA rats
[3] = chronic administration

Row | SMILES | liver enzyme elevation [3] | other results
1 | O=C(O)C[C@H]1CCc2c1[nH]c1ccc(OCc3ccc(C4CCCC4)c(C(F)(F)F)c3)cc21 [Compound 1, (R)-2-(7-(4-cyclopentyl-3-(trifluoromethyl)benzyloxy)-1,2,3,4-tetrahydrocyclopenta[b]indol-3-yl)acetic acid] |  | disease course, therapeutic administration ([1]; administered day 18 to day 37, similar to fingolimod): reverse the disease relative to vehicle; onset and severity of disease, prophylactic administration ([1]; up to day 25): prevented the onset and severity of disease relative to vehicle up to day 25; histological parameters in the knees and ankles [2]: Improvement in histological parameters
2 | CC(C)Oc1ncc(-c2nc(-c3cccc4c3ccn4CCCC(=O)O)no2)cc1Cl [GSK2018682] | liver enzyme elevation has been seen | 
3 | CCCCCCCCc1ccc(CCC(N)(CO)CO)cc1 [fingolimod] | liver enzyme elevation has been seen | 
4 | CC(C)Oc1ccc(-c2nc(-c3cccc4c3CC[C@@H]4NCCO)no2)cc1C#N [ozanimod] | liver enzyme elevation has been seen | 
5 | CCC/N=C1\S/C(=C\c2ccc(OC[C@H](O)CO)c(Cl)c2)C(=O)N1c1ccccc1C [ponesimod] | liver enzyme elevation has been seen | 
6 | CCc1cc(/C(C)=N/OCc2ccc(C3CCCCC3)c(C(F)(F)F)c2)ccc1CN1CC(C(=O)O)C1 [siponimod] | liver enzyme elevation has been seen | 
